Assay results from ChEMBL document CHEMBL4376823, “The discovery of a potent and selective third-generation EGFR kinase inhibitor as a therapy for EGFR L858R/T790M double mutant non-small cell lung cancer” (Eur J Med Chem, 2019).
Calls of active or inactive are those of the source.

Experiments:
NCI-H1975 [1] = experiment: Induction of apoptosis in human NCI-H1975 cells assessed as upregulation of Bad at 10 to 50 nM incubated for 24 hrs by Western blot analysis; format: functional, cell-based
[2] = tested on: Epidermal growth factor receptor (Homo sapiens), P00533 [L858R,T790M]; experiment: Inhibition of EGFR T790M/L858R mutant in human NCI-H1975 cells assessed as reduction in AKT phosphorylation at 5 to 100 nM incubated for 4 hrs by Western blot analysis; format: cell-based
NCI-H1975 [3] = experiment: Antitumor activity against human NCI-H1975 cells xenografted in ig dosed BALB/c mouse assessed as tumor growth inhibition for one week; format: functional, organism-based
[4] = target: T1, Epidermal growth factor receptor (Homo sapiens, UniProt P00533); experiment: Inhibition of EGFR in human NCI-H292 cells assessed as reduction in EGFR Y1068 phosphorylation at 5 to 100 nM incubated for 4 hrs by Western blot analysis; format: cell-based
NCI-H1975 [5] = experiment: Induction of apoptosis in human NCI-H1975 cells assessed as downregulation of Bcl-2 at 10 to 50 nM incubated for 24 hrs by Western blot analysis; format: functional, cell-based
NCI-H1975 [6] = experiment: Induction of apoptosis in human NCI-H1975 cells assessed as reduction in mitochondrial membrane potential at 5 to 50 nM incubated for 24 hrs by JC-1 staining based laser scanning confocal microscopy; format: functional, cell-based
[7] = tested on: Epidermal growth factor receptor (Homo sapiens), P00533 [L858R]; experiment: Inhibition of EGFR L858R mutant in human PC9 cells assessed as reduction in AKT phosphorylation at 5 to 100 nM incubated for 4 hrs by Western blot analysis; format: cell-based
[8] = tested on: Epidermal growth factor receptor (Homo sapiens), P00533 [L858R,T790M]; experiment: Inhibition of EGFR T790M/L858R mutant in human NCI-H1975 cells assessed as reduction in EGFR Y1068 phosphorylation at 5 to 100 nM incubated for 4 hrs by Western blot analysis; format: cell-based
NCI-H1975 [9] = experiment: Induction of apoptosis in human NCI-H1975 cells assessed as upregulation of Bax at 10 to 50 nM incubated for 24 hrs by Western blot analysis; format: functional, cell-based
[10] = tested on: Epidermal growth factor receptor (Homo sapiens), P00533 [L858R,T790M]; experiment: Inhibition of EGFR T790M/L858R mutant in human NCI-H1975 cells assessed as reduction in EGFR Y1068 phosphorylation incubated for 4 hrs by Western blot analysis; format: cell-based
[11] = tested on: Epidermal growth factor receptor (Homo sapiens), P00533 [L858R,T790M]; experiment: Inhibition of EGFR T790M/L858R mutant in human NCI-H1975 cells assessed as reduction in AKT phosphorylation incubated for 4 hrs by Western blot analysis; format: cell-based
[12] = target: T1, Epidermal growth factor receptor; experiment: Inhibition of EGFR in human NCI-H292 cells assessed as reduction in AKT phosphorylation incubated for 4 hrs by Western blot analysis; format: cell-based
[13] = tested on: Epidermal growth factor receptor (Homo sapiens), P00533 [L858R]; experiment: Inhibition of EGFR L858R mutant in human PC9 cells assessed as reduction in AKT phosphorylation incubated for 4 hrs by Western blot analysis; format: cell-based
[14] = target: T1, Epidermal growth factor receptor; experiment: Inhibition of EGFR in human NCI-H292 cells assessed as reduction in AKT phosphorylation at 5 to 100 nM incubated for 4 hrs by Western blot analysis; format: cell-based
[15] = tested on: Epidermal growth factor receptor (Homo sapiens), P00533 [L858R]; experiment: Inhibition of EGFR L858R mutant in human PC9 cells assessed as reduction in EGFR Y1068 phosphorylation at 5 to 100 nM incubated for 4 hrs by Western blot analysis; format: cell-based

T1 sequence (P00533 whole entry): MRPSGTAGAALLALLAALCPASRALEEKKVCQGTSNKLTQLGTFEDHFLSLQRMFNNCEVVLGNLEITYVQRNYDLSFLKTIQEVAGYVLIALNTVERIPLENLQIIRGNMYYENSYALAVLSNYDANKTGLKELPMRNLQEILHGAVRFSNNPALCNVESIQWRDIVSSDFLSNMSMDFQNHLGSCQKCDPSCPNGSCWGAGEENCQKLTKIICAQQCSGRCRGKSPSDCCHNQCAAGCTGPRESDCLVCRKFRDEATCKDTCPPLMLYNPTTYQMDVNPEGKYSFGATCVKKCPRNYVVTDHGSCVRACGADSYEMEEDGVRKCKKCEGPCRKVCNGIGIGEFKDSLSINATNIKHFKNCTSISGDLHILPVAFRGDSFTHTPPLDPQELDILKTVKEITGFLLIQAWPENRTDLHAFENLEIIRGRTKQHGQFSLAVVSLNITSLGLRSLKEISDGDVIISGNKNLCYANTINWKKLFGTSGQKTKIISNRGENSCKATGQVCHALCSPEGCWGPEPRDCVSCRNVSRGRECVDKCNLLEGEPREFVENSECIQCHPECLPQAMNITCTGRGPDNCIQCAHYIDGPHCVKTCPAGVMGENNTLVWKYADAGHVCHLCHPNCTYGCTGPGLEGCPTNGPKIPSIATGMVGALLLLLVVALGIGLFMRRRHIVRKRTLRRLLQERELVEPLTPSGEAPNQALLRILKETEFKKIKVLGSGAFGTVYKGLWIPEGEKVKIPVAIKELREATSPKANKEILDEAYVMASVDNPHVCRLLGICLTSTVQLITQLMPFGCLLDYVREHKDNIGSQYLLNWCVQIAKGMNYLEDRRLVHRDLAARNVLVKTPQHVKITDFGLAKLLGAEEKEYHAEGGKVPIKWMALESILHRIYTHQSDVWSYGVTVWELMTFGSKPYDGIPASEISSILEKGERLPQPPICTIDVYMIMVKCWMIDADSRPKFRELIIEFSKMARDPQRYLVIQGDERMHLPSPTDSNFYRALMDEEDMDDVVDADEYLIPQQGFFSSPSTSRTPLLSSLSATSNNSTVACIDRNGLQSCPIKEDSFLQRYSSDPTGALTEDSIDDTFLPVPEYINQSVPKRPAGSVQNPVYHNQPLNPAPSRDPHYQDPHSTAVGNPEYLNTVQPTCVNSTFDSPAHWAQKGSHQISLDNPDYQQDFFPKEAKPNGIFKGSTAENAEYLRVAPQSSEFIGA
Sequence of Epidermal growth factor receptor (Homo sapiens), P00533 [L858R,T790M] (P00533 whole entry T790M/L858R, looked up): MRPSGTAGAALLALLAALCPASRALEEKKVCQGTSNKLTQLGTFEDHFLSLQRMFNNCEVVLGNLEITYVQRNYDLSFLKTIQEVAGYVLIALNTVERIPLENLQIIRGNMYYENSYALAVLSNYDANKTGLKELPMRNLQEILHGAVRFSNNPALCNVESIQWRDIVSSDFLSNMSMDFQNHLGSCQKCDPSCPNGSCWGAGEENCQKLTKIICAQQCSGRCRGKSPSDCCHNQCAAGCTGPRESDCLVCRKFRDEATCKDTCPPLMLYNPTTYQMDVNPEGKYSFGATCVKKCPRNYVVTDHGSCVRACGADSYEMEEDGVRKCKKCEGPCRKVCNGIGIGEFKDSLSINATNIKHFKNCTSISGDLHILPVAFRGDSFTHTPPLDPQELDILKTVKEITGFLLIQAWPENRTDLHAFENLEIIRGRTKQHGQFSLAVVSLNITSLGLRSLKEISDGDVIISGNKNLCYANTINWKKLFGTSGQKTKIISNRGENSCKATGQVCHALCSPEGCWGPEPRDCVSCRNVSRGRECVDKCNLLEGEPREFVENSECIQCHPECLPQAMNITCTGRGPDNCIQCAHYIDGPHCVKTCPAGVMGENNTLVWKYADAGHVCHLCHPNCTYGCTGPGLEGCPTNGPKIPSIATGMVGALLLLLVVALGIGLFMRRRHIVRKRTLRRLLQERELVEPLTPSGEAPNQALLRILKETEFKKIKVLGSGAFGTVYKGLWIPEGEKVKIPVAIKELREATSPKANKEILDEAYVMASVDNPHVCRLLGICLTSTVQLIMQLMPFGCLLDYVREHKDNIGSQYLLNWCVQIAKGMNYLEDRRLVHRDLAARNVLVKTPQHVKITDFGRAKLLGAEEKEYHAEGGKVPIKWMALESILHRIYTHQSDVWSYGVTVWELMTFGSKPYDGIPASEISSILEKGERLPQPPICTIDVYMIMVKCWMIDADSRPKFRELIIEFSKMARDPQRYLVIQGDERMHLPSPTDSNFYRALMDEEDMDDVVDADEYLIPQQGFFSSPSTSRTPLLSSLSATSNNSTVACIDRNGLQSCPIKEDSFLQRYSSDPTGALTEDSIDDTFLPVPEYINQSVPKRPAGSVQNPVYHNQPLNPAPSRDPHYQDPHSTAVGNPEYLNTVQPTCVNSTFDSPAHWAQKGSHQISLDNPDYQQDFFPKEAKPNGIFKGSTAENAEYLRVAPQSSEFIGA
Sequence of Epidermal growth factor receptor (Homo sapiens), P00533 [L858R] (P00533 whole entry L858R): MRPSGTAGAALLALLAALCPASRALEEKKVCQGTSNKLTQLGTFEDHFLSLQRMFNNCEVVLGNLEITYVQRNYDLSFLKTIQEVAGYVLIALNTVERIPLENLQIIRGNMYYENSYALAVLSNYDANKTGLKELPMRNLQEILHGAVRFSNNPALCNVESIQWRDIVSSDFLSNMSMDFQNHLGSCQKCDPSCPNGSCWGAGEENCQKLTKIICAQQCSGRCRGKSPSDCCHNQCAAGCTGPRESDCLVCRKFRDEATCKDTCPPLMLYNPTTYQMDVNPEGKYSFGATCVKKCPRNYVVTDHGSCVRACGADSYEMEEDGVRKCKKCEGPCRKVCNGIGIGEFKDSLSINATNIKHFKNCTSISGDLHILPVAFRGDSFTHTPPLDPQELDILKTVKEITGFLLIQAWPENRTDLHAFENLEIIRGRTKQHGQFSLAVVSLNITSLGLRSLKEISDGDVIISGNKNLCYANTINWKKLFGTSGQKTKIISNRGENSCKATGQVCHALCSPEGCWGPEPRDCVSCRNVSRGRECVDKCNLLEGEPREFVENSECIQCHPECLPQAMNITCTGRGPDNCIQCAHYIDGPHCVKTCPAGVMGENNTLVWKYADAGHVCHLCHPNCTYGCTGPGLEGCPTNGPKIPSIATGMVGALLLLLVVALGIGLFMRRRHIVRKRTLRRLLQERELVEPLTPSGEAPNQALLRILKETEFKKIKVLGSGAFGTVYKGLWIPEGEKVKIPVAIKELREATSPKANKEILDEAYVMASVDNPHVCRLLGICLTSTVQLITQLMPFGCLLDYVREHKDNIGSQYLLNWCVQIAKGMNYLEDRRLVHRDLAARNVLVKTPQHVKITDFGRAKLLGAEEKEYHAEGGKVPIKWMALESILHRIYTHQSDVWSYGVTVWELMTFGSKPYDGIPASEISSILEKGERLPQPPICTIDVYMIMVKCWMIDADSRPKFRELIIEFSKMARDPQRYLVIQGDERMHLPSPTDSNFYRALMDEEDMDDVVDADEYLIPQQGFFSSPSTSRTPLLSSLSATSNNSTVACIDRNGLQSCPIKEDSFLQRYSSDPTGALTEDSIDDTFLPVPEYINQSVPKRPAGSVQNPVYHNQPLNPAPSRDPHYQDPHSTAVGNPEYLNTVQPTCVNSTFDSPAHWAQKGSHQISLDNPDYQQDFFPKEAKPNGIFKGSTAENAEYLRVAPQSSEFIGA

C=CC(=O)Nc1cc(Nc2nccc(-c3cn(C)c4ccccc34)n2)c(OC)cc1[S+]([O-])CCN(C)C (single isomer, unassigned; (-))
active: Activity (NCI-H1975 [1]) | inhibition [2] | TGI (NCI-H1975 [3]) Dose-dependent effect | inhibition [4] | Activity (NCI-H1975 [5]) | Activity (NCI-H1975 [6]) Dose-dependent effect | inhibition [7] | inhibition [8] | Activity (NCI-H1975 [9]) | inhibition [10] Dose-dependent effect | inhibition [11] Dose-dependent effect | inhibition [12] Dose-dependent effect | inhibition [13] Dose-dependent effect | inhibition [14] | inhibition [15]
